In the test the target is T1, HDM2 (Homo sapiens, UniProt Q00987).
T1 construct: Thioredoxin (N); made in house; host or cells: E. coli BL21(DE3)Rosetta (pET32a)
Kind of test: HDM2 FRET assay (inhibition of p53 peptide binding to HDM2). Conditions: for IC50: truncated HDM2 residues 17 to 125, 0.5 nM HDM2, 3 nM FITC labeled 8-mer peptide, two hour incubation. The source says:
Methods: An HDM2 FRET assay was developed to assess the compounds' inhibitory activity towards binding of p53 protein. A truncated version of HDM2 with residues 17 to 125 (containing p53 binding surface, Science (1994) 265, 346-355), with N-terminal His and Thioredoxin tag was generated in pET32a expression vector and expressed in E. coli strain BL21(DE3)Rosetta. Protein was purified using Ni-affinity chromatography, followed by size exclusion chromatography using Superdex 75 26/60 column. To assess inhibition of p53 binding to HDM2, a FITC labeled 8-mer peptide (sequence: Ac-Phe-Arg-Dpr-Ac6c-(6-Br)Trp-Glu-Glu-Leu-NH2; Anal Biochem. 2004 Aug. 1; 331(1):138-46) with strong affinity towards p53 binding pocket of HDM2 was used. The HDM2 assay buffer contained 1× Phosphate Buffered Saline (Invitrogen, Cat#14190), 0.01% BSA (Jackson ImmunoResearch, Cat#001-000-162), 0.01% Tween-20. In the 1× assay buffer recombinant HDM2 protein, peptide and Lumi4-Tb Cryptate-conjugate mouse anti-6×HIS antibody (cisbio, Cat#Tb61HISTLB) were added and transferred to ProxiPlate PLUS (PerkinElmer, Cat#6008269), containing compounds so that final DMSO concentration is 0.1%. Final concentrations of reagents in the assay wells are 0.5 nM HDM2, 0.25 nM anti HIS (Tb label) antibody and 3 nM peptide. After two hour incubation at room temperature in a humidified chamber plates were read on EnVision plate reader with the following settings: excitation: UV, […], two emission filters: 520 nm and 495 nm respectively. Ratio of em520/em495 was used to calculate % inhibition and to obtain IC50 with 4-parameter logistic equation.
IC50 DETERMINATIONS: Dose-response curves were plotted from the inhibition data, from 10 point serial dilutions of inhibitory compounds. Concentration of compound was plotted against em520/Cem495 ratio signal. To generate IC50 values, the dose-response curves were fitted to a standard sigmoidal curve and IC50 values were derived by nonlinear regression analysis. IC50 values in the above table are rounded to the nearest integer.

T1 sequence (Q00987 17-125): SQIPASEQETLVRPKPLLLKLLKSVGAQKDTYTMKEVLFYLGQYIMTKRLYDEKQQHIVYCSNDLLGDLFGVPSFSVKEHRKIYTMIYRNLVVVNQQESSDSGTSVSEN

By IC50 is commonly meant the concentration that inhibits the measured activity by half. Higher therefore signals a need for much substance. For `O=c1[nH]c(-c2nc(-c3cccc(Cl)c3)c3c(ncn3C[C@H]3CC[C@H](C(F)(F)F)CC3)n2)no1` [Example 3.2, 3-[6-(3-chlorophenyl)-7-{[trans-4-(trifluoromethyl)cyclohexyl]methyl}-7H-purin-2-yl]-1,2,4-oxadiazol-5(4H)-one], the half-maximal inhibitory concentration (IC50) (Table 3) was 437 nM.
`C=C1CCC(Cn2cnc3nc(C(=O)O)nc(N[C@H](C)C4CCC4)c32)CC1` [Example 3.8, 6-{[(1R)-1-cyclobutylethyl]amino}-7-[(4-methylidenecyclohexyl)methyl]-7H-purine-2-carboxylic acid] displayed an IC50 (Table 3) of 677 nM.
`C[C@@H](Nc1nc(-c2noc(=O)[nH]2)nc2ncn(C[C@H]3CC[C@H](C)CC3)c12)C1CCC1` [Example 1.7, 3-(6-{[(1R)-1-cyclobutylethyl]amino}-7-[(trans-4-methylcyclohexyl)methyl]-7H-purin-2-yl)-1,2,4-oxadiazol-5(4H)-one] returned a 50% inhibitory concentration (IC50) (Table 1) of 51.3 nM.
Turning to `COCCOc1cc(Cl)cc(-c2nc(-c3noc(=O)[nH]3)nc3ncn(C[C@H]4CC[C@H](C)CC4)c23)c1` [Example 2.22, 3-{6-[3-chloro-5-(2-methoxyethoxyl)phenyl]-7-[(trans-4-methylcyclohexyl)methyl]-7H-purin-2-yl}-1,2,4-oxadiazol-5(4H)-one], the IC50 (Table 2) was determined as 68.5 nM.
Usually inhibition stands for the share of the control response that was lost under treatment. Read a high inhibition as a response far below the control. As to `CC1(C)CCCN(c2nc(-c3noc(=O)[nH]3)nc3ncn(C[C@H]4CC[C@H](C)CC4)c23)C1` [Example 1.12, 3-{6-(3,3-dimethylpiperidin-1-yl)-7-[(trans-4-methylcyclohexyl)methyl]-7H-purin-2-yl}-1,2,4-oxadiazol-5(4H)-one], the inhibition at 1 µM (Table 1, printed in the FRET IC50 column, at 1000 nM compound) is 43%.

For the origin of these results see patent publication US9682978B2, “2,6,7 substituted purines as HDM2 inhibitors” (Merck Sharp & Dohme Corp., priority 2013, dated 2017).
